Experimental findings from PubChem BioAssay AID463204 (Broad Institute, 2010) are described below.

Molecules are shown by their SMILES. Activity calls are given as the source filed them.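 Rule for the calls: active = AC50 no more than ten times the top concentration tested, that is within one log above it; inconclusive = flat curve fit with activity between 30% and 70%, or invalid poor fit; inactive = AC50 beyond ten times the top tested dose.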 Where only a bound is given, the exact number is not on record here.

The test system of this assay is S. cerevisiae Mot1-301 ts growth rescue, BacTiter-Glo ATP luminescence. As to the kind of experiment: growth rescue of Mot1-301 ts yeast, confirmation, SUMOylation pathway inhibitor project, whole organism, S. cerevisiae, Mot1-301 ts mutant, luminescence, dose retest (AID 463204).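 Note: growth at restrictive 38.5 degrees C of Mot1-301 OY566 strain; actives raise luminescence by restoring growth of the ts mutant at high temperature.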
Turning to `COC(=O)CSc1ccc(S(=O)(=O)N2CCCCCC2)cc1[N+](=O)[O-]`, the AC50 (in general, the midpoint of the concentration-response curve, whichever way the signal moves) was > 42 µM (inactive).
Take `CN(C)c1ccc(C(=O)N2CCCC(CCC(=O)N3CCN(c4ccccn4)CC3)C2)cc1` (configuration not stated): the AC50 was > 42 µM (inactive).
Turning to `COc1cccc(NC(=O)CN(C)C(=O)c2ccccc2OCc2c(C)noc2C)c1`, the AC50 was > 42 µM (inactive).
The result for `COc1ccccc1-n1nnnc1SCC(=O)Nc1ccc(C)c(N)c1` reads > 42 µM (inactive).
The result for `N#Cc1ccc(C23CC4(C2)[C@H](CN(Cc2ccc(C(F)(F)F)cc2)[C@@H]4c2ccccc2)C3c2ccc(C(F)(F)F)cc2)cc1` (some centres not stated) reads > 42 µM (inactive).
With `c1ccc2[nH]c(CSc3nccs3)nc2c1`, the AC50 is > 42 µM (inactive).
Take `CCn1c(CSCc2ccc(F)cc2)nnc1SCC(=O)NCc1ccccc1`: the AC50 is > 42 µM (inactive).
Take `O=C(Nc1ccc2c(c1)oc1ccccc12)C1CC1`: the AC50 is > 42 µM (inactive).
On to `CN1C(=O)/C(=C/c2ccc(OCc3ccccc3F)cc2)NC1=S`, for which the AC50 was > 42 µM (inactive).
Regarding `Cc1ccc(NC(=O)Cn2nc(C)c3ccccc3c2=O)cc1`, the AC50 was > 42 µM (inactive).
In the case of `COc1ccc(C(C)=O)cc1CN(c1ccccc1OC)S(=O)(=O)c1cccs1`, the AC50 is > 42 µM (inactive).
`CC1(C)C2CC[C@]3(C)C(CC=C4[C@@H]5C[C@@](C)(CO)[C@@H](O)C[C@]56C[C@@H](OC6=O)[C@]43C)[C@@]2(C)CC[C@@H]1O` (some centres not stated): the AC50 is > 42 µM (inactive).
For `Cc1sc2nc(N)sc2c1C`, the AC50 was > 42 µM (inactive).
Regarding `Cc1cc(C)cc(NC(=O)CS(=O)(=O)c2ccccc2)c1`, the AC50 was > 42 µM (inactive).
As to `CCC(C)[C@H](N)c1nnc(SCC(=O)Nc2cccc(Cl)c2)o1` (some centres not stated), the AC50 was > 42 µM (inactive).
Consider `O=C(COC(=O)C1CC(=O)N(Cc2ccccc2)C1)Nc1ccccc1F` (configuration not stated), for which the AC50 was > 21 µM (inactive).
Take `CN(Cc1ccc(C(C)(C)C)cc1)C(=O)c1ccc2c(=O)n3c(nc2c1)CCC3`: the AC50 was > 42 µM (inactive).
`Cc1cccn2c(=O)c3cc(C(=O)NCCc4ccccc4)sc3nc12`: the AC50 is > 42 µM (inactive).
Turning to `O=C(CSc1nccc(=O)[nH]1)c1cc2ccccc2o1`, the AC50 is > 42 µM (inactive).
The result for `Nc1nc(SCc2nc3scc(-c4cccs4)c3c(=O)[nH]2)n[nH]1` reads > 42 µM (inactive); that for `CCN(CCn1cccn1)C(=O)C1CCC(=O)N(CCc2cccc(F)c2)C1` (configuration not stated), > 42 µM (inactive).
As for `O=C(COC(=O)c1ccc([N+](=O)[O-])s1)c1ccc[nH]1`, the half-maximal activity concentration (AC50) is 21 µM.
`CCOCCCNC(=O)C(c1ccc(OC)cc1)N(Cc1ccc2c(c1)OCO2)C(=O)CNC(C)=O` (configuration not stated): the AC50 is > 42 µM (inactive).
The result for `Cc1nn(-c2ccccc2)c(N)c1N=Nc1cccc(S(=O)(=O)N2CCOCC2)c1` reads > 42 µM (inactive); that for `COCCN(C(=O)c1csnn1)C(C(=O)NC1CCCCC1)c1ccccc1` (configuration not stated), > 42 µM (inactive); that for `O=C(C1CCN(C2CC(=O)N(c3cccc(Cl)c3)C2=O)CC1)N1CCCC1` (configuration not stated), 7.84 µM.
As for `Cc1cc(C)cc(C(=O)Oc2cc(C)[nH]c(=O)c2[N+](=O)[O-])c1`, the AC50 is > 42 µM (inactive).
The result for `Cc1ccc(NC(=S)N2CCN(Cc3ccc4c(c3)OCO4)CC2)c(C)c1` reads > 42 µM (inactive); that for `CCCOc1ccc(N2C(=O)CC(N3CCC(C(=O)OCC)CC3)C2=O)cc1` (configuration not stated), 13.1 µM.
In the case of `Cc1ccc(S(=O)(=O)N2[C@@H](c3ccccc3)C(C(=O)O)=CC[C@H]2c2ccc(Cl)cc2)cc1`, the AC50 is 8.57 µM.
With `Cc1cc(=O)n2[nH]c(-c3ccc(F)cc3)nc2n1`, the AC50 was > 42 µM (inactive).
The result for `COc1ccc(S(=O)(=O)n2nc(-c3ccc(Cl)cc3)cc2N)cc1OC` reads > 42 µM (inactive); that for `COC(=O)c1ccc(Cn2cc(Cl)cn2)cc1`, > 42 µM (inactive); that for `N=c1ncn(CC(O)CO)c2nc(N3CCOCC3)[nH]c12` (configuration not stated), > 42 µM (inactive).
`O=C(CN1CCc2ccccc21)NN1CC(=O)N(c2ccc(Cl)cc2)CC1=O`: the AC50 was > 42 µM (inactive).
As to `O=C(CCNS(=O)(=O)c1cccc2nsnc12)NCCC1=CCCCC1`, the AC50 is > 42 µM (inactive).
Turning to `COc1cc(SC)ccc1C(=O)Nc1cc(C)c(OCC(=O)N2CCOCC2)c(C)c1`, the AC50 is > 42 µM (inactive).
For `C=C(C)C(=O)Nc1cccnc1Oc1ccc(F)cc1F`, the AC50 is > 42 µM (inactive).
For `C=CCC(NCCCO)c1cccc(OC)c1OC` (configuration not stated) the value was > 42 µM (inactive); for `O=C(COC(=O)CNC(=O)c1ccc(Cl)cc1)Nc1ncc(C(F)(F)F)cc1Cl`, > 42 µM (inactive).
For `Cc1ccc(S(=O)(=O)NNC(=O)c2cc3cc4ccccc4nc3s2)cc1` the value was > 42 µM (inactive).
Turning to `CCN1C(=O)N(C)[C@@H](c2ccccc2)C(C(=O)OC)=C1C`, the AC50 is > 42 µM (inactive).
The result for `CC(C)c1ccc(-c2cc(C(=O)N3CCOCC3)c3cc(Br)ccc3n2)cc1` reads > 42 µM (inactive); that for `O=C(c1ccc(OC2CCN(CCc3ccccc3)CC2)cc1)N1CCCC1`, > 42 µM (inactive).
As for `CN1C(C(=O)Nc2ccccn2)=C(O)c2sccc2S1(=O)=O`, the AC50 is > 42 µM (inactive).
Regarding `Cc1c(NC(=O)C(C)Sc2nnc(-c3ccccc3)o2)c(=O)n(-c2ccccc2)n1C` (configuration not stated), the AC50 was > 42 µM (inactive).
For `CC(C(=O)N1CCN(C(=O)c2ccco2)CC1)n1sc2ccccc2c1=O` (configuration not stated) the value was > 42 µM (inactive).
Turning to `COc1cc2nc(CSc3ncn[nH]3)[nH]c(=O)c2cc1OC`, the AC50 is > 42 µM (inactive).
`CCn1c(N2CCN(C(=O)C34CC5CC(CC(C5)C3)C4)CC2)nc2ccccc21`: the AC50 is > 42 µM (inactive).
Regarding `O=C(O)CNS(=O)(=O)Cc1ccccc1`, the AC50 is > 42 µM (inactive).
Take `Cc1sc(NC(=O)c2ccc(F)cc2)c(CN2CCCCCC2)c1C`: the AC50 is > 42 µM (inactive).
Consider `CN(CC(=O)N1CCc2[nH]c3ccc(F)cc3c2C1)CC1OCCO1`, for which the AC50 was > 42 µM (inactive).
Consider `O=c1[nH]c(CN2CCN(CCO)CC2)nc2ccccc12`, for which the AC50 was > 42 µM (inactive).
In the case of `NC(=O)c1cc(S(=O)(=O)N2CCCC2)ccc1OCc1ccc(F)cc1`, the AC50 was > 42 µM (inactive).
`COCCn1c(N)c(N(Cc2ccccc2)C(=O)CN2C(=O)NC(C)(c3ccccc3)C2=O)c(=O)[nH]c1=O` (configuration not stated): the AC50 is > 42 µM (inactive).
The result for `NC(=O)c1nsc(C(=O)N(Cc2ccc(F)cc2)C(C(=O)NC2CCCC2)c2ccco2)c1N` (configuration not stated) reads > 42 µM (inactive); that for `COc1ccc(Cl)cc1C(=O)NCCc1ccc(S(=O)(=O)NC(=O)NC2CCCCC2)cc1`, > 42 µM (inactive); that for `COc1ccc(OCC(=O)O/N=C(\N)Cc2ccc(Cl)cc2)cc1`, > 42 µM (inactive).
On to `Nc1nnc(COc2ccc(Br)cc2Br)s1`, for which the AC50 is > 42 µM (inactive).
Turning to `COc1ccc(NC(=O)CN(C)C(=O)c2cc(C)on2)cc1`, the AC50 is > 42 µM (inactive).
For the compound `COC(=O)c1sccc1NC(=S)N1CCCCC1`, the AC50 was > 42 µM (inactive).
In the case of `O=C(COc1cccc2cccnc12)N1CCc2ccccc21`, the AC50 was > 42 µM (inactive).
